Laboratory results published in PubChem BioAssay (NCI).
Values joined by “and” are separate entries in the source; they are usually repeats but may differ in a detail not shown here. Identical values can stand only once.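 Results reflect a 48-hour exposure of cells in 96-well plates to compound at five concentrations. GI50 marks 50% less growth. TGI is the concentration that stops growth completely.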

Assays:
Assay in all cases: growth of human tumour cells (NCI), 48 h
[1] = tested on: SK-MEL-2 melanoma
[2] = tested on: COLO 205 colon
[3] = tested on: OVCAR-4 ovarian
[4] = tested on: HCT-15 colon
[5] = tested on: SK-MEL-5 melanoma
[6] = tested on: LOX IMVI melanoma
[7] = tested on: RXF 393 renal
[8] = tested on: EKVX NSCLC
[9] = tested on: SK-OV-3 ovarian
[10] = tested on: TK-10 renal
[11] = tested on: SR leukemia
[12] = tested on: SF-539 CNS
[13] = tested on: MDA-MB-435
[14] = tested on: NCI/ADR-RES ovarian

SMILES	TGI [1]	TGI [2]	TGI [3]	TGI [4] [µM]	TGI [5]	TGI [6]	TGI [7]	TGI [8]	TGI [9]	TGI [10]	TGI [11]	TGI [12]	TGI [13]	TGI [14] [µM]	GI50 [13] [µM]	GI50 [11] [µM]
CC#Cc1c(C#CC)c(OC)c2c(c1OC)C(=O)c1ccccc1C2=O	> 100 µM	> 100 µM	> 100 µM	> 100	> 100 µM	> 100 µM	55.1 µM	> 100 µM	> 100 µM	> 100 µM	> 100 µM	–	–	–	–	–
Cc1ccc(F)c2c(=O)cc(-c3ccccc3)[nH]c12	> 100 µM	> 100 µM	> 100 µM	> 100	> 100 µM	> 100 µM	> 100 µM	–	> 100 µM	> 100 µM	> 100 µM	> 100 µM	–	–	–	–
O=C1/C(=C/c2ccc(Cl)cc2)Sc2scc(-c3cccc([N+](=O)[O-])c3)[n+]21	29.1 µM	4.48 µM	28.1 µM	4.66	12.9 µM	–	7.97 µM	13.9 µM	23.6 µM	5.07 µM	2.42 µM	8.11 µM	13.2 µM	–	–	–
O=C1c2ccccc2C(=O)c2c(O)c(NCCNCCO)cc(O)c21	15.8 µM	–	15.7 µM	14.1	13.1 µM	15.5 µM	13.4 µM	14.4 µM	–	17.7 µM	9.04 µM	14.4 µM	–	–	–	–
CC1=C(C(=O)NC(C)(C)C)CC(C(=O)NC(C)(C)C)C(C)N1 (stereo unspecified)	> 100 µM	> 100 µM	> 100 µM	> 100	> 100 µM	> 100 µM	> 100 µM	> 100 µM	> 100 µM	> 100 µM	–	> 100 µM	> 100 µM	> 100	–	–
Cc1cc(Cl)ccc1NC(=O)C(=O)Cc1occc(=O)c1O	> 100 µM	> 100 µM	> 100 µM	> 100	> 100 µM	> 100 µM	> 100 µM	> 100 µM	> 100 µM	> 100 µM	> 100 µM	> 100 µM	–	–	–	–
CCCOP(=S)(N1CC1)N1CC1	> 100 µM	> 100 µM	> 100 µM	> 100	> 100 µM	> 100 µM	> 100 µM	> 100 µM	> 100 µM	> 100 µM	> 100 µM	> 100 µM	–	–	–	–
C=CCC1C2CCC(O[Si](C(C)C)(C(C)C)C(C)C)(C(C(=O)OC)C2)C1O (stereo unspecified)	> 100 µM	> 100 µM	> 100 µM	> 100	> 100 µM	–	–	> 100 µM	> 100 µM	> 100 µM	> 100 µM	> 100 µM	> 100 µM	> 100	–	–
C(=N/NC1=NCCN1)/c1c2ccccc2c(/C=N\NC2=NCCN2)c2ccccc12	0.271 µM and 0.747 µM and 0.422 µM	0.366 µM and 0.609 µM and 1.41 µM	0.4 µM and 0.584 µM and 1.1 µM	214	0.214 µM and 0.896 µM and 0.761 µM	0.27 µM and 0.332 µM and 1.75 µM	0.829 µM and 2.08 µM and 0.596 µM	2.32 µM and 2.94 µM and 1.57 µM	0.526 µM and 1.82 µM and 3.48 µM	4.73 µM and 12.9 µM	0.759 µM and 4.29 µM	0.345 µM and 0.857 µM and 0.402 µM	0.271 µM and 0.477 µM	–	0.155	0.116
Cc1nc2nn(C)cc2c(=O)n1/N=C/c1ccccc1	> 100 µM	> 100 µM	> 100 µM	> 100	> 100 µM	> 100 µM	> 100 µM	> 100 µM	> 100 µM	> 100 µM	> 100 µM	> 100 µM	–	–	–	–
c1cc(C[S+]2CCCC2)oc1C[S+]1CCCC1	–	> 100 µM	> 100 µM	> 100	> 100 µM	> 100 µM	> 100 µM	> 100 µM	> 100 µM	> 100 µM	–	> 100 µM	> 100 µM	> 100	–	–
COc1ccc(C2C(Cl)C(=O)N2NC(=O)c2ccccc2O)cc1OC (stereo unspecified)	> 100 µM	–	> 100 µM	> 100	> 100 µM	> 100 µM	> 100 µM	–	> 100 µM	> 100 µM	–	> 100 µM	–	–	–	–
O=C1c2c(ccc3c2CCCC3)CC1Cc1ccc2c(c1)CCCC2 (stereo unspecified)	> 100 µM	> 100 µM	> 100 µM	> 100	> 100 µM	> 100 µM	78.5 µM	> 100 µM	> 100 µM	> 100 µM	67.6 µM	> 100 µM	> 100 µM	–	–	–
CC(C)c1cccc(C(C)C)c1NC(=O)C(=O)C1SC(=S)NC1=O (stereo unspecified)	> 100 µM	> 100 µM	> 100 µM	> 100	> 100 µM	> 100 µM	> 100 µM	> 100 µM	> 100 µM	> 100 µM	> 100 µM	> 100 µM	–	–	–	–
